Laboratory results published in patent US11779531B2, “Anti-inflammatory peptides, and uses thereof” (NURITAS LIMITED, priority 2015, dated 2023).

tested on: TNF-α secretion in THP1 cells; experiment: TNF-α secretion by LPS-stimulated THP-1 differentiated cells after synthetic peptide treatment (Biolegend ELISA); type: cell-based, human; details: THP-1 cells, synthetic peptide 100, 10 or 1 ng/ml for 24 h, then 10 ng/ml LPS 5 h; vs untreated control; concentration behind the value not stated
Description: FIGS. 1 to 18: The effect of eighteen synthetic peptides of the invention on TNF-secretion in THP1 cells. All experiments were prepared in duplicate on three plates (6 wells/conditions). Significance was calculated using Students t-test (*p<0.05 compared to control, **p<0.01 compared to control, *** p<0.001 compared to control). The figures correspond with the following SEQ ID Nos: FIG. 1 is SEQ ID NO: 339, FIG. 2 is SEQ ID NO: 352, FIG. 3 is SEQ ID NO: 341, FIG. 4 is SEQ ID NO: 351, FIG. 5 is SEQ ID NO: 144, FIG. 6 is SEQ ID NO: 93, FIG. 7 is SEQ ID NO: 320, FIG. 8 is SEQ ID NO: 92, FIG. 9 is SEQ ID NO: 75, FIG. 10 is SEQ ID NO: 76, FIG. 11 is SEQ ID NO: 349, FIG. 12 is SEQ ID NO: 350, FIG. 13 is SEQ ID NO: 105, FIG. 14 is SEQ ID NO: 177, FIG. 15 is SEQ ID NO: 345, FIG. 16 is SEQ ID NO: 353, FIG. 17 is SEQ ID NO: 344, FIG. 18 is SEQ ID NO: 346.
FIGS. 26 to 28. The effect of three synthetic peptides of the invention on TNF-secretion in THP1 cells. All experiments were prepared in duplicate on three plates (6 wells/conditions). Significance was calculated using Students t-test (*p<0.05 compared to control, **p<0.01 compared to control, ***p<0.001 compared to control). The figures correspond with the following SEQ ID Nos: FIG. 26 is SEQ ID NO: 85, FIG. 27 is SEQ ID NO: 91, FIG. 28 is SEQ ID NO: 420.
TNF-α is secreted by macrophages in response to stimulation by endotoxins such as lipopolysaccharides (LPS). TNF-α is thought to be involved in systemic inflammation and dysregulation of TNF-α production is thought to be involved in many diseases. The Biolegend assay is a sandwich ELISA kit that is designed for the accurate quantitation of human TNF-α from cell culture supernatant, serum or plasma.
THP-1 monocytes were seeded in a 96 well plate at 10,000 cells per well in RPMI containing 10% fetal calf serum (FCS), 1% Pen/strep, 1% L-glutamine, 100 nM PMA and allowed to differentiated for 72 h prior to experimentation.
Following differentiation the cells were incubated with 100 ng/ml, 10 ng/ml or 1 ng/ml synthetic peptide for 24 h respectively.
Following treatment the cells were stimulated with 10 ng/ml LPS for 5 h and the quantity of TNF-α in the supernatant determined using the Biolegend assay ELISA kit.
Results were calculated as a percentage of the untreated control. An increase in optical density reading indicates greater quantity of TNF-a release into cell culture supernatant.
All experiments were prepared in duplicate on three plates (6 wells/conditions). Significance was calculated using Students t-test (*p<0.05 compared to control, **p<0.01 compared to control, ***p<0.001 compared to control).

Substance	TNF-α DECREASE
75 (LSSGDVFVIPAGHPVAVK) [compound 75]	11%
76 (EDDEEEEQGEEEINK) [compound 76]	9%
85 (SKPHTIFLPQHTDADYILVVLSGK) [compound 85]	80%
91 (PGQLQSFLLSGNQNQQNYLSGFSK) [compound 91]	80%
92 (FFELTPEKNQQLQDLDLFVNSVDLK) [compound 92]	13%
93 (QLEELSK) [compound 93]	14%
105 (PSYEKQEDEEEKQK) [compound 105]	9%
144 (SIFRALPND) [compound 144]	16%
320 (RGPQQYAEWQINE) [compound 320]	13%
339 (QSFLLSGNQNQQ) [compound 339]	26%
341 (RGPQQYA) [compound 341]	21%
344 (GYYGEQQQQPGMTR) [compound 344]	20%
345 (IDGYDTPVEGR) [compound 345]	23%
346 (NGVLRPGQL) [compound 346]	18%
349 (TVFDGVLRPGQL) [compound 349]	6%
351 (HGPVEMPYTLLYPSSK) [compound 351]	18%
352 (LDALEPDNR) [compound 352]	23%
420 (RLQSQNDQRGEIIHVK) [compound 420]	80%
